Test results: patent publication US20240034753A1, “THERAPEUTIC PEPTIDES” (COHBAR, INC., priority 2020, published 2024)

How the values were obtained:
C2C12 Mouse Myoblasts = assay: Glucose utilization (glucose remaining in medium); assay type: cell-based; details: metformin 1 mM, 18-22 hours
Description: The effect of the peptides on glucose metabolism can be assessed using an assay of glucose utilization in cultured cells such as mouse myoblasts. Peptides were initially prepared as 10 mM stock in DMSO and used at a final concentration of 10 μM (0.1% DMSO). C2C12 mouse myoblast cell line was purchased from American Type Culture Collection (Manassas, VA). C2C12 cultures were maintained at 37° C. in a humidified atmosphere of 5% CO2/95% air with medium changes every second day. C2C12 cells were grown in DMEM (1 g/L glucose) supplemented with 10% FBS with 100 IU/ml penicillin and 100 μg/ml streptomycin. C2C12 cells were seeded at 7,000 cells per well on 96-well plates and cultured to confluence. Once the cell reached confluence the media was changed to DMEM (1 g/L glucose) supplemented with 2% HS with 100 IU/ml penicillin and 100 μg/ml streptomycin and maintained at 37° C. in a humidified atmosphere of 5% CO2/95% air. 5 days post-induction of differentiation fresh DMEM (1 g/L glucose) supplemented with 2% HS with 100 IU/ml penicillin and 100 μg/ml streptomycin was added to cultures. Cells were maintained at 37° C. in a humidified atmosphere of 5% CO2 and 95% air for 5 hours. After 5 hours test peptides at 10 μM or controls (0.5 mM or 1 mM metformin in 1% DMSO) prepared in fresh differentiation medium were added to cells and the cultures were maintained at 37° C. in a humidified atmosphere of 5% CO2/95% air for 18-22 hours. At the end of the incubation culture media was removed from the cells and the remaining glucose concentration was measured using a Glucose Assay kit (Abcam) according to the manufacturer's instructions, using a Cytation 3 plate reader at 570 nm (BioTek, Winooski, VT). Glucose concentrations in the medium were calculated relative to 0.1% DMSO treated control cells. The relative standard deviation of the result for the 0.1% DMSO treated control was <20%. Metformin was used as a positive control for reduction of glucose levels (increased glucose utilization glucose levels for treatment with metformin (1 mM) treatment were <20% of the 0.1% DMSO treated control value. The results are reported in Table 11.

[1] = test system: SH-SY5Y Neuroblastoma Cells; assay: ATP levels (CellTiter-Glo); assay type: cell-based, human; details: staurosporine 1 μM, 18-20 hours
Description: The effect of the peptides on cellular metabolism can be assessed using an assay of ATP levels in cultured cells such as human neuroblastoma cells. Peptides were initially prepared as 10 mM stock in DMSO and used at a final concentration of 10 μM (0.1% DMSO). […] CellTiter-Glo® Assay kit was purchased from Promega. SH-SY5Y human bone marrow neuroblastoma cell line was purchased from American Type Culture Collection (Manassas, VA) and licensed from Memorial Sloan-Kettering Cancer Center (New York, NY). SH-SY5Y cells were grown in DMEM/F12 medium supplemented with 10% FBS with 100 IU/ml penicillin and 100 μg/ml streptomycin. Cultures were maintained at 37° C. in a humidified atmosphere of 5% CO2/95% air. SH-SY5Y cells were seeded at 30,000 cells per well on 96-well plates. […] ATP levels were determined using a CellTiter-Glo Assay kit (Promega) according to the manufacturer's instructions. Luminescence for each sample well on the plate was measured using a Cytation 3 plate reader (BioTek, Winooski, VT). Activity was calculated relative to 0.1% DMSO treated control. The relative standard deviation of the result for the 0.1% DMSO treated control was <5%.

[2] = PrestoBlue cell viability assay; assay type: cell-based; details: human; read-out: Cell viability, % of background corrected DMSO control value
Description: The effect of the peptides on cell viability can be assessed in cultured cells using suitable assay of viability such as the PrestoBlue® assay (Thermo Fisher Scientific, Waltham, MA). Peptides were initially prepared as 10 mM stock in DMSO and tested at a final concentration of 10 μM (0.1% DMSO). […] PrestoBlue Assay Reagent was purchased from Thermo Fisher Scientific. A172 human brain glioblastoma cell line was purchased from American Type Culture Collection (Manassas, VA). A172 cells were grown in DMEM supplemented with 10% FBS with 100 IU/ml penicillin and 100 μg/ml streptomycin. Cultures were maintained at 37° C. in a humidified atmosphere of 5% CO2/95% air. A172 cells were seeded at 8,000 cells per well on 96-well plates. […] Cell viability was determined using a PrestoBlue Assay reagent […] according to the manufacturer's instructions. Absorption for each sample well on the plate was measured using a Cytation 3 plate reader at 560 nm and 590 nm (BioTek, Winooski, VT). Activity was calculated relative to 0.1% DMSO untreated control. Treatment with 0.1% DMSO alone was used as the cell viability activity control. The relative standard deviation of the DMSO control was <5%.

3T3-L1 Mouse Adipocytes = assay: Free fatty acid levels in cultured mouse adipocytes stimulated with isoproterenol; assay type: cell-based; details: insulin 100 nM, 3 hours with 1 nM isoproterenol
Description: The effect of the peptides on fatty acid metabolism can be assessed using an assay of free fatty acid levels in cultured cells such as mouse adipocytes. Peptides were initially prepared as 10 mM stock in DMSO and used at a final concentration of 10 μM (0.1% DMSO). […] Mouse 3T3-L1 cells purchased from ZenBio were seeded at 3,000 cells per well in 96-well plates in Pre-adipocyte Medium (Zen-Bio) and grown to confluence at 37° C. in a humidified atmosphere of 5% CO2/95% air. Two days after confluence, cells were placed in Adipocyte Differentiation Medium (Zen-Bio) and cultured for three additional days at 37° C. in a humidified atmosphere of 5% CO2/95% air. The culture media was then replaced with Adipocyte Maintenance Medium (Zen-Bio) and the cells maintained for an additional 9-12 days at 37° C. in a humidified atmosphere of 5% CO2/95% air with partial medium replacement every other day. Following 12-15 days of differentiation, test peptides were added at a final concentration of 10 μM in 0.1% DMSO and incubated for 20-22 hours in Adipocyte Maintenance Medium at 37° C. in a humidified atmosphere of 5% CO2/95% air. After 20-22 hours, 1 nM isoproterenol was added to all wells except untreated controls and test peptides were replenished. Insulin at 100 nM was added to control wells. Cells were incubated for 3 hours in Assay Buffer (Zen-Bio) at 37° C. in a humidified atmosphere of 5% CO2/95% air. Free fatty acid concentrations in the media were determined using a Free Fatty Acid Assay kit (Zen-Bio) according to the manufacturer's instructions using a Cytation 3 plate reader at 540 nm (BioTek, Winooski, VT). Absorbance values were corrected for untreated background and expressed relative to isoproterenol treated cells. Treatment with isoproterenol (1 nM) alone was used as the free fatty acid level stimulatory control. The relative standard deviation of the isoproterenol control was <10%. […] Free fatty acid levels for insulin (100 nM) treatment were <5% of the isoproterenol control value.

Question: For CN(C)C(=N)N=C(N)N [Metformin, reference compound], which “Glucose levels, % of the 0.1% DMSO treated control value” (C2C12 Mouse Myoblasts) is on record?
Answer: < 20%

Question: What does the source list for CN[C@@H]1C[C@H]2O[C@@](C)([C@@H]1OC)n1c3ccccc3c3c4c(c5c6ccccc6n2c5c31)C(=O)NC4 [Staurosporine, reference compound]?
Answer: ATP levels, % of the 0.1% DMSO treated control value [1]: < 5%; viability at 1 µM [2]: < 75%

Question: For Insulin [reference compound], which “Free fatty acid levels, % of the isoproterenol control value” (3T3-L1 Mouse Adipocytes) is on record?
Answer: < 5%
